Here are results for 99 compounds from ChEMBL document CHEMBL4732064, “Structure-activity relationship studies of phenothiazine derivatives as a new class of ferroptosis inhibitors together with the therapeutic effect in an ischemic stroke model” (Eur J Med Chem, 2021).

The source made the active and inactive calls. The rule behind the calls is not given here. A value given as a limit tells only on which side of the number the result lay.

In general, EC50 refers to the concentration at which the effect is half-maximal.

The first assay deals with HT-1080. The assay can be described thus: Inhibition of erastin-induced ferroptosis in human HT-1080 cells assessed as cell viability incubated for 48 hrs by MTT assay. Type of assay: functional, cell-based. The following applies: HT-1080, 48 h.
`CC(=NNC(=O)c1ccco1)c1ccc2c(c1)Nc1ccccc1S2`: the EC50 came to 17 nM.

Take `CC(c1cccc(N2CCN(C)CC2)c1)c1ccc2c(c1)Nc1ccccc1S2` (configuration not stated): the EC50 worked out at 9 nM. On the same count and under the same terms, the figure for `c1ccc(Cc2ccc3c(c2)Nc2ccccc2S3)cc1` is 17 nM; for `COc1cc(C(C)c2ccc3c(c2)Nc2ccccc2S3)ccc1F` (configuration not stated) it is 25 nM.

For `CC(CN1c2ccccc2Sc2ccccc21)N(C)C` (configuration not stated) [PROMETHAZINE], the EC50 is 264 nM.

Consider `C/C(=N\NS(=O)(=O)c1ccc(C)cc1)c1ccc2c(c1)Nc1ccccc1S2`, for which the EC50 was found to be 28 nM. Still for that read-out and setting: then `COc1cc(OC)cc(C(C)c2ccc3c(c2)Nc2ccccc2S3)c1` (configuration not stated), with 13 nM. As to `CS(=O)(=O)c1ccc2c(c1)Nc1ccccc1S2`, the EC50 came to 195 nM. Take `O=C(c1ccncc1)N1c2ccccc2Sc2ccccc21`: the EC50 was found to be 4470 nM. Turning to `CC(C)c1cccc(C(C)c2ccc3c(c2)Nc2ccccc2S3)c1` (configuration not stated), the EC50 was 12 nM. Still for that read-out and setting: then `CC(c1ccc2c(c1)Nc1ccccc1S2)c1ccc(F)c(OCc2ccccc2)c1` (configuration not stated), with 35 nM. On the same count and under the same terms, then `COc1ccc2c(c1)Nc1ccccc1S2`, with 1750 nM.

In the case of `CCOC(=O)c1ccc(NC2CCCCC2)c(N)c1`, the EC50 stood at 88 nM.

Regarding `CC(c1cccc(N2CCOCC2)c1)c1ccc2c(c1)Nc1ccccc1S2` (configuration not stated), the EC50 is 14 nM. Same read-out and setting: the figure for `CC(=O)c1ccc2c(c1)Nc1ccccc1S2` is 38 nM; for `C/C(=N\NC(=O)c1ccccn1)c1ccc2c(c1)Nc1ccccc1S2` it is 65 nM; for `CCOC(=O)c1cc(F)cc(C(C)c2ccc3c(c2)Nc2ccccc2S3)c1` (configuration not stated) it is 30 nM.

`CC(c1ccc(C(F)(F)F)cc1)c1ccc2c(c1)Nc1ccccc1S2` (configuration not stated): the EC50 is 6 nM. Take `CC(c1cccc(C(=O)OC(C)(C)C)c1)c1ccc2c(c1)Nc1ccccc1S2` (configuration not stated): the EC50 is 17 nM.

As to `CC(c1ccc2c(c1)Nc1ccccc1S2)S(=O)(=O)N1CCN(c2ccc(F)cc2F)CC1` (configuration not stated), the EC50 was 80 nM. Consider `CC(c1ccc(F)cc1)c1ccc2c(c1)Nc1ccccc1S2` (configuration not stated), for which the EC50 stood at 6 nM. On the same count and under the same terms, then `CC(OC(=O)c1ccccc1)c1ccc2c(c1)Nc1ccccc1S2` (configuration not stated), with 13 nM; and `CC1CCN(CC(=O)N2c3ccccc3Sc3ccccc32)CC1`, with 2760 nM; and `CC(c1cccc(Cl)c1)c1ccc2c(c1)Nc1ccccc1S2` (configuration not stated), with 5 nM.

Turning to `CCCOc1ccc(C(C)c2ccc3c(c2)Nc2ccccc2S3)cc1` (configuration not stated), the EC50 worked out at 62 nM.

Turning to `COc1ccc(C(C)c2ccc3c(c2)Nc2ccccc2S3)cc1OC` (configuration not stated), the EC50 came to 7 nM. Regarding `CC(c1ccc(Cl)c(Cl)c1)c1ccc2c(c1)Nc1ccccc1S2` (configuration not stated), the EC50 turned out to be 16 nM.

As for `CC(=O)c1cccc(NC(=O)CCN2c3ccccc3Sc3ccccc32)c1`, the EC50 is 4300 nM. Still for that read-out and setting: the figure for `CC(C)Oc1ccc(C(C)c2ccc3c(c2)Nc2ccccc2S3)cc1` (configuration not stated) is 17 nM. Still for that read-out and setting: then `CC(c1ccc(OCc2ccccc2)cc1)c1ccc2c(c1)Nc1ccccc1S2` (configuration not stated), with 14 nM; and `CC(c1cccc(NC(=O)OC(C)(C)C)c1)c1ccc2c(c1)Nc1ccccc1S2` (configuration not stated), with 52 nM; and `O=C(CCN1c2ccccc2Sc2ccccc21)N1CCN(CCO)CC1`, with more than 10000 nM. On to `CCN(CC)CC(O)CN1c2ccccc2Sc2ccccc21` (configuration not stated), for which the EC50 is 4420 nM. As to `OCc1ccc2c(c1)Nc1ccccc1S2`, the EC50 was determined as 63 nM. Same read-out and setting: then `CC(OC(=O)CCCN1C(=O)c2ccccc2C1=O)C(=O)N1c2ccccc2Sc2ccccc21` (configuration not stated), with 439 nM; and `CC(c1ccc(C(C)(C)C)cc1)c1ccc2c(c1)Nc1ccccc1S2` (configuration not stated), with 73 nM. For the compound `CC(c1ccc2c(c1)Nc1ccccc1S2)S(=O)(=O)N1CCN(c2ccc(F)cc2)CC1` (configuration not stated), the EC50 was determined as 80 nM. Still for that read-out and setting: the figure for `CC(=O)c1ccccc1NC(=O)COC(=O)CCN1c2ccccc2Sc2ccccc21` is more than 10000 nM; for `Cc1ccc(SCC(=O)N2c3ccccc3Sc3ccccc32)cc1` it is more than 10000 nM. The same measure, in the same setting: the figure for `CC(c1cc(F)cc(OCc2ccccc2)c1)c1ccc2c(c1)Nc1ccccc1S2` (configuration not stated) is 60 nM; for `C/C(=N\NC(=O)c1cccnc1)c1ccc2c(c1)Nc1ccccc1S2` it is 71 nM.

As for `COCCNC(=O)N1c2ccccc2Sc2ccccc21`, the EC50 was more than 10000 nM.

Turning to `c1ccc2c(c1)Nc1ccccc1S2` [PHENOTHIAZINE], the EC50 came out at 49 nM.

Take `CC(c1ccc(N2CCOCC2)cc1)c1ccc2c(c1)Nc1ccccc1S2` (configuration not stated): the EC50 was 13 nM. On the same count and under the same terms, the figure for `CC(c1ccc(C#N)cc1)c1ccc2c(c1)Nc1ccccc1S2` (configuration not stated) is 6 nM; for `CCCCC(CC)CN1c2ccccc2Sc2ccccc21` (configuration not stated) it is more than 10000 nM; for `CC(c1cccc(C#N)c1)c1ccc2c(c1)Nc1ccccc1S2` (configuration not stated) it is 15 nM. Still for that read-out and setting: then `N#Cc1ccc2c(c1)Nc1ccccc1S2`, with 209 nM. The same measure, in the same setting: then `CSc1ccc2c(c1)Nc1ccccc1S2`, with 64 nM; and `CCCN1c2ccccc2Sc2ccccc21`, with more than 10000 nM; and `CC(C)c1ccc(C(C)c2ccc3c(c2)Nc2ccccc2S3)cc1` (configuration not stated), with 6 nM. On to `O=C(CN1CCCC1)N1c2ccccc2Sc2ccccc21`, for which the EC50 worked out at 1130 nM. Same read-out and setting: then `CC(c1ccc(F)c(Cl)c1)c1ccc2c(c1)Nc1ccccc1S2` (configuration not stated), with 5 nM; and `CC(c1ccc(NC(=O)OC(C)(C)C)cc1)c1ccc2c(c1)Nc1ccccc1S2` (configuration not stated), with 39 nM. On to `CC(c1cccc(O)c1)c1ccc2c(c1)Nc1ccccc1S2` (configuration not stated), for which the EC50 worked out at 5 nM. As for `Cc1ccc(C)c(NC(=O)CN(C)C(=O)CCN2c3ccccc3Sc3ccccc32)c1`, the EC50 is 5240 nM. The same measure, in the same setting: then `CC(c1ccc(C(F)(F)F)c(Cl)c1)c1ccc2c(c1)Nc1ccccc1S2` (configuration not stated), with 17 nM.

In the case of `CCN1CCN(S(=O)(=O)C(C)c2ccc3c(c2)Nc2ccccc2S3)CC1` (configuration not stated), the EC50 worked out at 32 nM.

On to `FC(F)(F)c1ccc2c(c1)Nc1ccccc1S2`, for which the EC50 was determined as 47 nM. Regarding `CCc1ccc(C(C)c2ccc3c(c2)Nc2ccccc2S3)cc1` (configuration not stated), the EC50 was 20 nM.

Turning to `CC(c1cccc(OCc2ccccc2)c1)c1ccc2c(c1)Nc1ccccc1S2` (configuration not stated), the EC50 is 25 nM.

Turning to `COc1cc(C(C)c2ccc3c(c2)Nc2ccccc2S3)ccc1Cl` (configuration not stated), the EC50 turned out to be 22 nM. The same measure, in the same setting: the figure for `Cc1cnc(SCC(=O)N2c3ccccc3Sc3ccccc32)nc1` is more than 10000 nM; for `CCCCc1ccc(C(C)c2ccc3c(c2)Nc2ccccc2S3)cc1` (configuration not stated) it is 64 nM; for `CCc1cccc(C(C)c2ccc3c(c2)Nc2ccccc2S3)c1` (configuration not stated) it is 18 nM. For the compound `CC(c1ccc2c(c1)Nc1ccccc1S2)S(=O)(=O)N1CCN(S(C)(=O)=O)CC1` (configuration not stated), the EC50 stood at 35 nM. The same measure, in the same setting: the figure for `COc1ccccc1C(=O)N1c2ccccc2Sc2ccccc21` is more than 10000 nM. Same read-out and setting: the figure for `CC(=O)N1c2ccccc2Sc2ccccc21` is 1150 nM. The same measure, in the same setting: then `CC(c1ccc(Cl)c(F)c1)c1ccc2c(c1)Nc1ccccc1S2` (configuration not stated), with 19 nM. On to `CN1c2ccccc2Sc2ccccc21`, for which the EC50 was more than 10000 nM.

For `CC(c1ccc2c(c1)Nc1ccccc1S2)S(=O)(=O)N1CCN(C)CC1` (configuration not stated), the EC50 is 34 nM. The same measure, in the same setting: then `COC(=O)c1ccc(C(C)c2ccc3c(c2)Nc2ccccc2S3)cc1Cl` (configuration not stated), with 21 nM; and `CCc1ccc2c(c1)Nc1ccccc1S2`, with 30 nM. Same read-out and setting: then `CC(c1cc(Cl)cc(Cl)c1)c1ccc2c(c1)Nc1ccccc1S2` (configuration not stated), with 17 nM; and `CC(OC(=O)CCN1c2ccccc2Sc2ccccc21)c1ccc(F)cc1` (configuration not stated), with more than 10000 nM; and `COc1cc(C(C)c2ccc3c(c2)Nc2ccccc2S3)ccc1C` (configuration not stated), with 22 nM.

Turning to `CCOc1cccc(C(C)c2ccc3c(c2)Nc2ccccc2S3)c1` (configuration not stated), the EC50 came to 14 nM. With `CCOc1ccccc1C(=O)N/N=C(\C)c1ccc2c(c1)Nc1ccccc1S2`, the EC50 worked out at 18 nM. Still for that read-out and setting: then `CC(c1cccc(F)c1)c1ccc2c(c1)Nc1ccccc1S2` (configuration not stated), with 6 nM; and `Cc1cc(C)cc(C(C)c2ccc3c(c2)Nc2ccccc2S3)c1` (configuration not stated), with 21 nM. Same read-out and setting: the figure for `Cc1cc(C(C)c2ccc3c(c2)Nc2ccccc2S3)ccc1OCc1ccccc1` (configuration not stated) is 71 nM; for `CC(c1ccccc1)c1ccc2c(c1)Nc1ccccc1S2` (configuration not stated) it is 4 nM; for `CC(c1ccc2c(c1)Nc1ccccc1S2)S(=O)(=O)N1CCOCC1` (configuration not stated) it is 67 nM.

With `COc1ccc(C(C)c2ccc3c(c2)Nc2ccccc2S3)cc1C` (configuration not stated), the EC50 turned out to be 19 nM. Still for that read-out and setting: then `Cc1cc(Cl)cc(C(C)c2ccc3c(c2)Nc2ccccc2S3)c1` (configuration not stated), with 24 nM; and `COc1cccc(N2CCN(S(=O)(=O)C(C)c3ccc4c(c3)Nc3ccccc3S4)CC2)c1` (configuration not stated), with 57 nM.

`Cc1cccc(C(C)c2ccc3c(c2)Nc2ccccc2S3)c1` (configuration not stated): the EC50 was found to be 5 nM. Still for that read-out and setting: then `CC(c1ccc(Cl)cc1)c1ccc2c(c1)Nc1ccccc1S2` (configuration not stated), with 16 nM; and `COc1ccc(OCC(=O)N2c3ccccc3Sc3ccccc32)cc1`, with 145 nM; and `CC(C)Cc1ccc(C(C)c2ccc3c(c2)Nc2ccccc2S3)cc1` (configuration not stated), with 9 nM. Same read-out and setting: then `CC(c1ccc2c(c1)Nc1ccccc1S2)S(=O)(=O)N1CCSCC1` (configuration not stated), with 78 nM; and `CC(C)N1CCN(S(=O)(=O)C(C)c2ccc3c(c2)Nc2ccccc2S3)CC1` (configuration not stated), with 25 nM. Regarding `CCOc1ccc(C(C)c2ccc3c(c2)Nc2ccccc2S3)cc1` (configuration not stated), the EC50 was 17 nM. `CC(NC(=O)CCN1c2ccccc2Sc2ccccc21)C1CC1` (configuration not stated): the EC50 was found to be 4040 nM. Regarding `C/C(=N\NC(=O)c1ccccc1C)c1ccc2c(c1)Nc1ccccc1S2`, the EC50 amounted to 5 nM.

As to `O=Cc1ccc2c(c1)Nc1ccccc1S2`, the EC50 worked out at 142 nM. On the same count and under the same terms, then `CC(C)Oc1cccc(C(C)c2ccc3c(c2)Nc2ccccc2S3)c1` (configuration not stated), with 15 nM.

Another assay has as its system HT-29. The assay can be described thus: Protection against TNFalpha/Smac-mimetic/Z-VAD-FMK-induced necroptosis in human HT-29 cells assessed as cell viability at 10 uM. The format is functional, cell-based.
Settings: not given
With `CCOC(=O)c1ccc(NC2CCCCC2)c(N)c1`, the outcome was inactive. `CN1C(=O)C(Cc2c[nH]c3ccccc23)NC1=S` (configuration not stated): the outcome was Active.

The subject of a further assay is THP-1. The assay can be described thus: Protection against nigericin-induced pyroptosis in human THP-1 cells assessed as cell viability at 10 uM. The format is functional, cell-based.
Settings: not given
For `CC(C)(O)c1coc(S(=O)(=O)NC(=O)Nc2c3c(cc4c2CCC4)CCC3)c1`, the result was Active.

The next assay relates to HT-1080. The assay can be described thus: Inhibition of rotenone-induced oxidative cell death in human HT-1080 cells at 10 uM incubated for 24 hrs. Type of assay: functional, cell-based.
Settings: not given
`CCOC(=O)c1ccc(NC2CCCCC2)c(N)c1`: the inhibition result is “inactive”.

The test system of the next assay is HT-1080. The assay can be described thus: Inhibition of H2O2-induced oxidative cell death in human HT-1080 cells at 10 uM incubated for 24 hrs. Type of assay: functional, cell-based.
Settings: not given
Turning to `CCOC(=O)c1ccc(NC2CCCCC2)c(N)c1`, the outcome was inactive.
